Data set [1] addresses T1, protein tyrosine phosphatase 1B (PTP1B) (Homo sapiens, UniProt P18031).
T1 sequence (P18031 1-435): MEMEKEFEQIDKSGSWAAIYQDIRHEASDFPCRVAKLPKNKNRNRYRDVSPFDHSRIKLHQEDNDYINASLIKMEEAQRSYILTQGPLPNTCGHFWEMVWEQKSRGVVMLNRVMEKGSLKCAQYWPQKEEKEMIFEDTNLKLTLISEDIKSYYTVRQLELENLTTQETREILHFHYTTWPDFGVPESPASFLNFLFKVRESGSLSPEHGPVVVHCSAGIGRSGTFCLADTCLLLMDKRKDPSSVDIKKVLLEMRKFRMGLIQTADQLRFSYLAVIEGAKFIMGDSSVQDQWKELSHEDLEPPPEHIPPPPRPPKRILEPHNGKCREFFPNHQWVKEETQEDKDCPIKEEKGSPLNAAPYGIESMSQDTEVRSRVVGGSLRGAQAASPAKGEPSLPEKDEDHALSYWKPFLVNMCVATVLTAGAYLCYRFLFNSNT
As to the kind of experiment: PTP1B inhibitory assay (pNPP hydrolysis). Type of data set: biochemical. To be noted: pNPP substrate, pH 6.0, 37 °C, 30 min. On the procedure: Protein tyrosine phosphatase 1B (PTP1B) inhibitory activity was determined by measuring the rate of hydrolysis of a substrate, p-nitrophenyl phosphate (pNPP, Sigma, St. Louis, MO, USA) according to the published method with a slight modification. Briefly, PTP1B (100 μL of 0.5 μg/mL stock solution, Enzo Life Sciences, Farmingdale, NY, USA) in 50 mM citrate buffer (pH 6.0) containing 0.1 M NaCl, 1 mM dithiothreitol (DTT), and 1 mM N,N,N′,N′-ethylenediamine tetraacetate (EDTA) were added to each well of a 96-well plastic plate (Corning Inc., Corning, NY, USA). […] The reaction was initiated by the addition of pNPP (100 μL of 4.0 mM stock solution) in the citrate buffer, incubated at 37 °C for 30 min, and terminated with the addition of 10 μL of a stop solution (10 M NaOH). The optical density of each well was measured at 405 nm using an MTP-500 microplate reader (Corona Electric Co., Ltd., Ibaraki, Japan). PTP1B inhibitory activity (%) is defined as [1 − (ABSsample − ABSblank)/(ABScontrol − ABSblank)] × 100, where ABSblank is the absorbance of wells containing only the buffer and pNPP, ABScontrol is the absorbance of p-nitrophenol liberated by the enzyme in the assay system without a test sample, and ABSsample is that with a test sample. The assays were performed in two duplicate experiments for all test samples. Oleanolic acid (Tokyo Chemical Industry, Tokyo, Japan), a known phosphatase inhibitor [15], was used as a positive control.

Data set [2] in a line: in vitro. Type of data set: cell-based. To be noted: human. On the procedure: Cytotoxic activity against Huh-7 cells was assessed by the MTT assay, a modification of our previously described method. Following the treatment of cells with test samples, 10 μL of MTT (5.0 mg/mL saline) was added to each well, the samples were incubated for 90 min at 37 °C and centrifuged (300g for 5 min), and the supernatant was aspirated off. The cells were lysed and solubilized by the addition of 100 μL of 0.040 N HCl in 2-propanol. The absorbance of each well was determined at 590 nm using an Inter-med model NJ-2300 Microplate Reader (Cosmo Bio Co., Ltd., Tokyo, Japan). Survival (%) was calculated relative to the control.

Data set [3] is described as follows: in vitro. Type of data set: cell-based. To be noted: human. On the procedure: (§1) HCT-15 and Jurkat cells were obtained from the Center for Biomedical Research, Institute of Development, Aging, and Cancer, Tohoku University (Miyagi, Japan). The cell lines were cultured in RPMI-1640 medium. The medium was supplemented with 10 % fetal bovine serum, 100 U/mL penicillin, and 100 μg/mL streptomycin. Exponentially growing cells, cultured in a humidified chamber at 37 °C containing 5.0 % CO2, were used for the experiments. Cytotoxic activity was evaluated using the colorimetric MTT assay. HCT-15 (1.0 × 10^4 cells in 100 μL) or Jurkat cells (2.0 × 10^4 cells in 100 μL) were added to each well of a 96-well plastic plate. A sample (1.0 μL in MeOH) was added to each well to make the final concentrations from 0 to 39–47 μM, and the cells were incubated for 48 h at 37 °C. MTT (10 μL of 5.5 mg/mL stock solution) and a cell lysate solution (90 μL, 40 % N,N-dimethylformamide, 20 % sodium dodecyl sulfate, 2.0 % CH3COOH and 0.030 % HCl) were added to each well, and the plate was shaken thoroughly by agitation at room temperature for overnight. The optical density of each well was measured at 570 nm using an MTP-500 microplate reader.
The source holds these as a separate data set.

Data set [4] can be described thus: in vitro. To be noted: human. Type of data set: cell-based. On the procedure:
as §1
This is another data set of the same source.

Usually IC50 stands for the point on the concentration scale where inhibition reaches its midpoint. Read a high IC50 as lower potency. Take `COc1c(Br)cc(Br)cc1Oc1c(O)cc(Br)cc1Br` [Compound 1, 2-(3′,5′-dibromo-2′-methoxyphenoxy)-3,5-dibromophenol]: the IC50 in data set [1] turned out to be 850 nM; in “in vitro [2]” it was 32000 nM.
Take `COc1cc(Br)cc(Br)c1Oc1cc(Br)cc(Br)c1OC` [Compound 2, 3,5-dibromo-2-(3′,5′-dibromo-2′-methoxyphenoxy)-1-methoxybenzene]: the IC50 in data set [1] is 1700 nM; in the data set “in vitro [2]”, 48000 nM. In addition, the IC50 at 48 h in “in vitro [3]” and in “in vitro [4]” was more than 46000 nM each time.
For `COc1c(Br)cc(Br)cc1Oc1c(Br)cc(Br)cc1OC(C)=O` [Compound 3, 3,5-dibromo-2-(3′,5′-dibromo-2′-methoxyphenoxy)phenyl ethanoate], half-maximal inhibition in data set [1] (IC50) required 620 nM.
In turn, `CCCC(=O)Oc1cc(Br)cc(Br)c1Oc1cc(Br)cc(Br)c1OC` [Compound 4, 3,5-Dibromo-2-(3′,5′-dibromo-2′-methoxyphenoxy)phenyl butanoate] displayed an IC50 in data set [1] of 680 nM.
In data set [1], `CCCCCC(=O)Oc1cc(Br)cc(Br)c1Oc1cc(Br)cc(Br)c1OC` [Compound 5, 3,5-Dibromo-2-(3′,5′-dibromo-2′-methoxyphenoxy)phenyl hexanoate] yielded an IC50 of 690 nM.
With `COc1c(Br)cc(Br)cc1Oc1c(Br)cc(Br)cc1OC(=O)c1ccccc1` [Compound 6, 3,5-Dibromo-2-(3′,5′-dibromo-2′-methoxyphenoxy)phenyl benzoate], the IC50 in data set [1] is 970 nM.

The values are drawn from article PMC3765847, “A polybromodiphenyl ether from an Indonesian marine sponge Lamellodysideaherbacea and its chemical derivatives inhibit protein tyrosine phosphatase 1B, an important target for diabetes treatment” (Journal of Natural Medicines, 2012).
